The values below come from patent publication US7041275B2, “Irrigating fluid” (priority 2001, dated 2006).

The conditions of series [1]: pig, in vivo.
Procedure: To a bag with 3 L fluid 300 mL of nitrous oxide (=0,18 mg nitrous oxide/mL irrigagting fluid) were added. The nitrous oxide was measured with a 300 mL glass syringe and injected into the bag using the syringe connection. The temperature was abut 22° C. and the air pressure about 1015 mbar (not measured but estimated via meteorological service). Before the addition of nitrous oxide the gas in the bag was removed, about 1 mL remained. After the addition of nitrous oxide the bag was shaken until the nitrous oxide was dissolved. A gas bubble with a volume of abut 15 mL remained.
The weight of the pig was 19 kg. Ventilation 3L/min with 20 breaths per minute, 25% inhalation followed by 10% pause. At the first test 300 mL of irrigating fluid were injected intravenously during 20 min using a dosing pump.
Series [2] is described as follows: Nitrous oxide concentration in exhaled air of pigs after injection of irrigating fluid containing nitrous oxide. In kind it is in vivo, pig. The source says: A Telair N2O monitor type 2001 L was used to measure the nitrous oxide concentration. The measuring range of the instrument was 0–1000 ppm.
As the analyser was sensitive also to carbon dioxide an absorber containing soda lime to remove the carbon dioxide was arranged before the analyser. During the absorption process water is formed which together with the moisture in the exhaled air can disturb the measurements. A layer of silica gel after the soda lime absorber was used to eliminate this problem.
The sample gas pump gave a sample flow of 300 mL/min.
The pump was continuously pumping gas. The measured concentration was a time weighted average for the exhaled and inhaled gas.
The weight of the pig was 19 kg.
The weight of the pig was 21 kg. Ventilation as for pig. 1. First 300 mL of irrigating fluid were injected intraperitonally during 20 minutes. The initial decrease in nitrous oxide concentration was caused by placing the needle in the wrong place. Some mL were injected before the injection was stopped and the test restarted. The decrease is the decay phase from the first injection.
In test two 600 mL were administered intravenously during 20 minutes.
Weight 23 kg. Ventilation […], the rest as for pig 1. First a number of tests with intravenous injection of pulses of fluid were performed. The volumes added were 2, 10 and 20 mL. Approximately 1 mL/s was added.
Then 150 mL of fluid were administered intravenously during 20 minutes. The discontinuity in the diagram was caused by testing another ventilator setting which affected the reading so much that the data point was not used. After 40 minutes 600 mL of irrigating fluid were added intravenously during 20 minutes.
The nitrous oxde concentration values are measured concentrations minus the starting point value. In some cases a test was started while the nitrous oxide concentration from the previous test was still decreasing. As the base line was not stable, the values at the end of the decay phase are uncertain. This can be seen in FIG. 4, where it looks like the 150 mL concentration values are stabilizing at a higher level than the 600 mL values.

Where [3] appears, read: intraperitoneal injection of irrigating fluid, exhaled air.
Setting [4] is: intravenous injection of irrigating fluid, exhaled air.

SMILES strings stand for the structures.

Turning to `CCO` [ethanol], in series [1], the “highest measured ethanol concentration” value is 0.20%.
With `[N-]=[N+]=O` [nitrous oxide], the “decrease of concentration in exhaled air compared with ethanol” value in series [2] (data normalised to similar peak heights, pig 1, intravenous) is reported as “decreased much faster than the ethanol”. In series [2] (setting [3]), the “time before the nitrous oxide concentration started to increase” value stood at 2.5 min and the “time to 50% of the final concentration after the start of the increase” value was “about 5 minutes”. In series [2] (setting [4]), the “time after start of injection until nitrous oxide concentration started to increase” value was “about 15 seconds” and the “time to 50% of the final concentration after the concentration started to increase” value is reported as “about one”. For the same molecule, the “measured nitrous oxide concentration used in mass balance” value in series [2] (pig 3, 30 mL/min irrigating fluid intravenously, time weighted average of exhaled and inhaled gas) is listed as 520 ppm. Besides, in series [2] (pig 3, added amount of nitrous oxide 3,0 mL/min), the “exhaled nitrous oxide (mass balance)” value is 3,0 mL/min. Moreover, in series [2] (pulses of fluid added intravenously (2, 10, 20 mL), exhaled air, pig 3), the “increase of nitrous oxide concentration per mL of irrigating fluid” value was 10–15 ppm per mL. Also, the “time of peak reading after start of injection” value in series [2] (pulses of fluid added intravenously, exhaled air) is recorded as “about 30 seconds”.
